According to BigSolDB 2.1:

Details: in water

SMILES | solubility (mole fraction) (278.15 K) | solubility (mole fraction) (283.15 K) | solubility (mole fraction) (288.15 K) | solubility (mole fraction) (293.15 K) | solubility (mole fraction) (298.15 K) | solubility (mole fraction) (303.15 K) | solubility (mole fraction) (308.15 K) | solubility (mole fraction) (313.15 K) | solubility (mole fraction) (318.15 K) | solubility (mole fraction) (323.15 K) | solubility (mole fraction) (328.15 K) | solubility (mole fraction) (333.15 K)
CCC(N)=O | 0.134 | 0.163 | 0.195 | 0.232 | 0.276 | 0.315 | 0.371 | 0.4 | 0.45 | 0.486 | 0.527 | 0.568
CCCC(N)=O | 0.0163 | 0.021 | 0.026 | 0.0331 | 0.0442 | 0.0575 | 0.0724 | 0.0895 | 0.109 | 0.131 | 0.152 | 0.175
